The numbers were not newly measured in patent US10874768B2, “Drug eluting medical device” (priority 2017, dated 2020), which cites them from elsewhere.

The conditions of the data set: human, 3 patients, 180 mg/m^2 infusion over 3 hours.

In general, Cmax refers to the maximum level reached in the sampled fluid or tissue. With `CC(=O)O[C@H]1C(=O)[C@@]2(C)[C@H]([C@H](OC(=O)c3ccccc3)[C@]3(O)C[C@H](OC(=O)[C@H](O)[C@@H](NC(=O)c4ccccc4)c4ccccc4)C(C)=C1C3(C)C)[C@]1(OC(C)=O)CO[C@@H]1C[C@@H]2O` [paclitaxel], the Cmax was 5.23 µM.
